Source: patent publication US10947389B2, “Composition, film, near infrared cut filter, laminate, pattern forming method, solid image pickup element, image display device, infrared sensor, and color filter” (FUJIFILM Corporation, priority 2016, dated 2021)

Key:
[1] = Evaluation of absorption maximum and absorbance ratio (500 nm/λmax) in solution; assay type: physicochemical; conditions: for Absorbance Ratio (500 nm/λmax) / Absorption Maximum (nm): solvent chloroform; for λmax (nm) of Second Near Infrared Absorbing Compound: as listed in Table 58
Text: In this specification, “having an absorption maximum in a wavelength range of 650 to 1000 nm” denotes having a maximum absorbance in a wavelength range of 650 to 1000 nm in an absorption spectrum of the near infrared absorbing compound in a solution. Examples of a measurement solvent used for the measurement of the absorption spectra of the near infrared absorbing compound in the solution include chloroform, methanol, dimethyl sulfoxide, ethyl acetate, and tetrahydrofuran. In the case of a compound which is soluble in chloroform, chloroform is used as the measurement solvent. In the case of a compound which is not soluble in chloroform, methanol is used. In addition, In the case of a compound which is not soluble in chloroform and methanol, dimethyl sulfoxide is used.
Each of the compounds was dissolved in a measurement solvent shown in the following tables (concentration: 2.5×10^−6 mol/L) to measure an absorption spectrum (optical path length: 10 mm).
In addition, an absorbance ratio (500 nm/λmax) as a value obtained by dividing an absorbance at a wavelength of 500 nm by an absorbance at an absorption maximum was evaluated based on the following criteria.
A: the absorbance ratio (500 nm/λmax) was 0.04 or lower
B: the absorbance ratio (500 nm/λmax) was higher 0.04 and 0.08 or lower
C: the absorbance ratio (500 nm/λmax) was higher than 0.08

[2] = Evaluation of solubility in water at 23° C.; assay type: physicochemical; conditions: stirred for 1 hour
Method: Each of the compounds was added to water at 23° C. under the atmospheric pressure, the components were stirred for 1 hour, and the solubility of the compound in water was obtained. The solubility of the compound was evaluated based on the following criteria.
A: the solubility in water at 23° C. was 0.1 mass % or lower
B: the solubility in water at 23° C. was higher than 0.1 mass % and 1 mass % or lower
C: the solubility in water at 23° C. was higher than 1 mass %

Row | Absorption Maximum (nm) [1] | λmax (nm) of Second Near Infrared Absorbing Compound [1] | Second Near Infrared Absorbing Compound λmax (nm) ([1]; absorption maximum of the second near infrared absorbing compound) | Structure (SMILES) | Absorbance Ratio (500 nm/λmax) [1] | Solubility [2]
1 | 737 nm | – | – | CCCCC(CC)CC(=O)NC1=CC(=[N+](c2ccc(C)cc2)c2ccc(C)cc2)C=C/C1=C1\C(=O)C(c2ccc(N(c3ccc(C)cc3)c3ccc(C)cc3)cc2NC(=O)CC(CC)CCCC)=C1[O-] (centres unmarked) [Compound Q-3] | A (the absorbance ratio (500 nm/λmax) was 0.04 or lower) | A (the solubility in water at 23 °C was 0.1 mass % or lower)
2 | 704 nm | 704 nm | – | CCCCC(CC)CC(=O)Nc1cc2c(cc1C1=C([O-])/C(=c3/cc4c(cc3NC(=O)CC(CC)CCCC)=[N+](C)C(C)C4(C)C)C1=O)C(C)(C)C(C)N2C (centres unmarked) [Compound Q-36] | A (the absorbance ratio (500 nm/λmax) was 0.04 or lower) | A (the solubility in water at 23 °C was 0.1 mass % or lower)
3 | 822 nm | – | – | CCCCC(CC)COc1ccc(B2N=c3/c(=C4/C(=O)C(c5ccc6cccc7c6c5NB(c5ccc(OCC(CC)CCCC)cc5)N7)=C4O)ccc4cccc(c34)N2)cc1 (centres unmarked) [Compound Q-39] | A (the absorbance ratio (500 nm/λmax) was 0.04 or lower) | A (the solubility in water at 23 °C was 0.1 mass % or lower)
4 | 698 nm | – | – | CCCCN1/C(=C/C2=C([O-])C(=C/c3sc4c5ccccc5ccc4[n+]3CCCC)/C2=O)Sc2c1ccc1ccccc21 [Compound Q-54] | A (the absorbance ratio (500 nm/λmax) was 0.04 or lower) | A (the solubility in water at 23 °C was 0.1 mass % or lower)
5 | 885 nm | – | – | CC(CCC(COc1ccc(-c2c3/c(=C(\C#N)c4cnc5cc(Cl)c(Cl)cc5n4)n(B(c4ccccc4)c4ccccc4)c(-c4ccc(O)cc4)c3/c(=C(\C#N)c3cnc4cc(Cl)c(Cl)cc4n3)n2B(c2ccccc2)c2ccccc2)cc1)C(C)CC(C)(C)C)CC(C)(C)C (centres unmarked) [Compound V-42] | A (the absorbance ratio (500 nm/λmax) was 0.04 or lower) | A (the solubility in water at 23 °C was 0.1 mass % or lower)
6 | 740 nm | – | – | CC(C)CCCCCCCC(CCCCCC(C)C)COc1ccc(-c2c3c(=C(C#N)c4nc5ccccc5o4)n(B(c4ccccc4)c4ccccc4)c(-c4ccc(OCC(CCCCCCCC(C)C)CCCCCC(C)C)cc4)c3c(=C(C#N)c3nc4ccccc4o3)n2B(c2ccccc2)c2ccccc2)cc1 (centres unmarked) [II-9] | A (the absorbance ratio (500 nm/λmax) was 0.04 or lower) | A (the solubility in water at 23 °C was 0.1 mass % or lower)
7 | 740 nm | – | – | CC(CCC(COc1ccc(-c2c3c(=C(C#N)c4nc5ccccc5o4)n(B(c4ccccc4)c4ccccc4)c(-c4ccc(OCC(CCC(C)CC(C)(C)C)C(C)CC(C)(C)C)cc4)c3c(=C(C#N)c3nc4ccccc4o3)n2B(c2ccccc2)c2ccccc2)cc1)C(C)CC(C)(C)C)CC(C)(C)C (centres unmarked) [II-10] | A (the absorbance ratio (500 nm/λmax) was 0.04 or lower) | A (the solubility in water at 23 °C was 0.1 mass % or lower)
8 | 743 nm | 743 nm | – | CC(C)CCCCCCCC(CCCCCC(C)C)COc1cccc(-c2c3c(=C(C#N)c4nc5ccccc5o4)n(B(c4ccccc4)c4ccccc4)c(-c4cccc(OCC(CCCCCCCC(C)C)CCCCCC(C)C)c4)c3c(=C(C#N)c3nc4ccccc4o3)n2B(c2ccccc2)c2ccccc2)c1 (centres unmarked) [II-27] | A (the absorbance ratio (500 nm/λmax) was 0.04 or lower) | A (the solubility in water at 23 °C was 0.1 mass % or lower)
9 | 743 nm | 743 nm | – | CCCCCCCCCCC(CCCCCCCC)COc1cccc(-c2c3/c(=C(\C#N)c4nc5ccccc5o4)n(B(c4ccccc4)c4ccccc4)c(-c4cccc(OCC(CCCCCCCC)CCCCCCCCCC)c4)c3/c(=C(\C#N)c3nc4ccccc4o3)n2B(c2ccccc2)c2ccccc2)c1 (centres unmarked) [II-29] | A (the absorbance ratio (500 nm/λmax) was 0.04 or lower) | A (the solubility in water at 23 °C was 0.1 mass % or lower)
10 | 732 nm | – | – | Cc1ccccc1B(c1ccccc1C)n1c(-c2ccc(OCC(CCCCCCCC(C)C)CCCCCC(C)C)cc2)c2c(=C(C#N)c3nc4ccccc4o3)n(B(c3ccccc3C)c3ccccc3C)c(-c3ccc(OCC(CCCCCCCC(C)C)CCCCCC(C)C)cc3)c2c1=C(C#N)c1nc2ccccc2o1 (centres unmarked) [II-43] | A (the absorbance ratio (500 nm/λmax) was 0.04 or lower) | A (the solubility in water at 23 °C was 0.1 mass % or lower)
11 | 732 nm | – | – | Cc1ccccc1B(c1ccccc1C)n1c(-c2ccc(OCC(CCC(C)CC(C)(C)C)C(C)CC(C)(C)C)cc2)c2/c(=C(\C#N)c3nc4ccccc4o3)n(B(c3ccccc3C)c3ccccc3C)c(-c3ccc(OCC(CCC(C)CC(C)(C)C)C(C)CC(C)(C)C)cc3)c2/c1=C(\C#N)c1nc2ccccc2o1 (centres unmarked) [II-44] | A (the absorbance ratio (500 nm/λmax) was 0.04 or lower) | A (the solubility in water at 23 °C was 0.1 mass % or lower)
12 | 679 nm | 679 nm | – | CC(C)CCCCCCCC(CCCCCC(C)C)COc1cccc(-c2c3c(=C(C#N)c4nc5ccccc5o4)n(B4Oc5ccccc5O4)c(-c4cccc(OCC(CCCCCCCC(C)C)CCCCCC(C)C)c4)c3c(=C(C#N)c3nc4ccccc4o3)n2B2Oc3ccccc3O2)c1 (centres unmarked) [II-91] | A (the absorbance ratio (500 nm/λmax) was 0.04 or lower) | A (the solubility in water at 23 °C was 0.1 mass % or lower)
13 | 745 nm | – | – | Cc1ccc2oc(C(C#N)=c3c4c(-c5ccc(OCC(CCCCCCCC(C)C)CCCCCC(C)C)cc5)n(B(c5ccccc5)c5ccccc5)c(=C(C#N)c5nc6cc(C)ccc6o5)c4c(-c4ccc(OCC(CCCCCCCC(C)C)CCCCCC(C)C)cc4)n3B(c3ccccc3)c3ccccc3)nc2c1 (centres unmarked) [II-167] | A (the absorbance ratio (500 nm/λmax) was 0.04 or lower) | A (the solubility in water at 23 °C was 0.1 mass % or lower)
14 | 745 nm | – | – | Cc1ccc2oc(C(C#N)=c3c4c(-c5ccc(OCC(CCC(C)CC(C)(C)C)C(C)CC(C)(C)C)cc5)n(B(c5ccccc5)c5ccccc5)c(=C(C#N)c5nc6cc(C)ccc6o5)c4c(-c4ccc(OCC(CCC(C)CC(C)(C)C)C(C)CC(C)(C)C)cc4)n3B(c3ccccc3)c3ccccc3)nc2c1 (centres unmarked) [II-168] | A (the absorbance ratio (500 nm/λmax) was 0.04 or lower) | A (the solubility in water at 23 °C was 0.1 mass % or lower)
15 | 749 nm | – | – | Cc1ccc2oc(/C(C#N)=c3/c4c(-c5ccc(O)cc5)n(B(c5ccccc5)c5ccccc5)/c(=C(/C#N)c5nc6cc(C)ccc6o5)c4c(-c4ccc(O)cc4)n3B(c3ccccc3)c3ccccc3)nc2c1 [II-184] | A (the absorbance ratio (500 nm/λmax) was 0.04 or lower) | A (the solubility in water at 23 °C was 0.1 mass % or lower)
16 | 748 nm | – | – | Cc1ccc2oc(C(C#N)=c3c4c(-c5cccc(OCC(CCCCCCCC(C)C)CCCCCC(C)C)c5)n(B(c5ccccc5)c5ccccc5)c(=C(C#N)c5nc6cc(C)ccc6o5)c4c(-c4cccc(OCC(CCCCCCCC(C)C)CCCCCC(C)C)c4)n3B(c3ccccc3)c3ccccc3)nc2c1 (centres unmarked) [II-185] | A (the absorbance ratio (500 nm/λmax) was 0.04 or lower) | A (the solubility in water at 23 °C was 0.1 mass % or lower)
17 | 748 nm | – | 743 nm | Cc1ccc2oc(/C(C#N)=c3/c4c(-c5cccc(OCC(CCC(C)CC(C)(C)C)C(C)CC(C)(C)C)c5)n(B(c5ccccc5)c5ccccc5)/c(=C(/C#N)c5nc6cc(C)ccc6o5)c4c(-c4cccc(OCC(CCC(C)CC(C)(C)C)C(C)CC(C)(C)C)c4)n3B(c3ccccc3)c3ccccc3)nc2c1 (centres unmarked) [II-186] | A (the absorbance ratio (500 nm/λmax) was 0.04 or lower) | A (the solubility in water at 23 °C was 0.1 mass % or lower)
18 | 737 nm | – | – | Cc1ccc2oc(C(C#N)=c3c4c(-c5ccc(OCC(CCCCCCCC(C)C)CCCCCC(C)C)cc5)n(B(c5ccccc5C)c5ccccc5C)c(=C(C#N)c5nc6cc(C)ccc6o5)c4c(-c4ccc(OCC(CCCCCCCC(C)C)CCCCCC(C)C)cc4)n3B(c3ccccc3C)c3ccccc3C)nc2c1 (centres unmarked) [II-201] | A (the absorbance ratio (500 nm/λmax) was 0.04 or lower) | A (the solubility in water at 23 °C was 0.1 mass % or lower)
19 | 737 nm | – | – | Cc1ccc2oc(/C(C#N)=c3/c4c(-c5ccc(OCC(CCC(C)CC(C)(C)C)C(C)CC(C)(C)C)cc5)n(B(c5ccccc5C)c5ccccc5C)/c(=C(/C#N)c5nc6cc(C)ccc6o5)c4c(-c4ccc(OCC(CCC(C)CC(C)(C)C)C(C)CC(C)(C)C)cc4)n3B(c3ccccc3C)c3ccccc3C)nc2c1 (centres unmarked) [II-202] | A (the absorbance ratio (500 nm/λmax) was 0.04 or lower) | A (the solubility in water at 23 °C was 0.1 mass % or lower)
